In ChEMBL document CHEMBL4184170, “New Caspase-1 inhibitor by scaffold hopping into bio-inspired 3D-fragment space” (Bioorg Med Chem Lett, 2017):

Legend:
Caspase-1 [1] = molecular target: T1, Caspase-1 (Homo sapiens, UniProt P29466); experiment: Inhibition of human recombinant caspase1 expressed in Escherichia coli using AC-WEHD-AMC as substrate after 20 mins by fluorescence assay
T1 sequence (P29466 whole entry): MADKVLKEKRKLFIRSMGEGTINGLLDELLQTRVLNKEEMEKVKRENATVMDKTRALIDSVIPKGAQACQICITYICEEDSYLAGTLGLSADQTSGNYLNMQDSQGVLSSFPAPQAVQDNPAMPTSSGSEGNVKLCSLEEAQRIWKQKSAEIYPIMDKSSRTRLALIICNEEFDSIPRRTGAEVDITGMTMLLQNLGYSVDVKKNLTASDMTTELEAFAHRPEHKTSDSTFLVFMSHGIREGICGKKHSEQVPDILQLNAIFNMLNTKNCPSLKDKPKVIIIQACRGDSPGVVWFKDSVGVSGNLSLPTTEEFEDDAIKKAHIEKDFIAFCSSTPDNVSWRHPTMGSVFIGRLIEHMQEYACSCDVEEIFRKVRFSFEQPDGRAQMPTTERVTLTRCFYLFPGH

[2] = Fraction unbound in human plasma at 5 uM after 4 hrs by LC-MS/MS-based equilibrium dialysis method; type: ADME, cell-free
[3] = Lipophilicity, log D of the compound at pH 6.5 by chromatographic method; type: physicochemical; details: buffer
Caspase-1 [4] = molecular target: T1, Caspase-1; experiment: Inhibition of caspase1 in human THP1 cells assessed as LPS/ATP-induced IL-1beta release preincubated for 24 hrs in presence of LPS measured after overnight incubation by HTRF assay; type: cell-based

CC(C)[C@H](NC(=O)c1ccc2ccccc2c1)C(=O)N1[C@H]2CC[C@](O)(CC2)[C@H]1C(=O)N[C@H]1CC(=O)OC1O (stereo partly specified)
IC50 (Caspase-1 [1]): 17 nM | fraction unbound at 4 h, 5 µM [2]: 0.12 | chromatographic logD [3]: 2.1 | IC50 (Caspase-1 [4]): 86 nM

O=C1C[C@H](NC(=O)[C@@H]2CC[C@@H]3CCCC[C@H](NC(=O)c4nccc5ccccc45)C(=O)N32)C(O)O1 (stereo partly specified)
IC50 (Caspase-1 [1]): 11 nM

CC(C)(C)[C@H](NC(=O)c1ccc(N)c(Cl)c1)C(=O)N1CCC[C@H]1C(=O)N[C@H]1CC(=O)OC1O (stereo partly specified)
IC50 (Caspase-1 [1]): 5 nM
